Measured values published in US9242970B2 (ACTELION PHARMACEUTICALS LTD., priority 2010, dated 2016).
Where two headings read alike, the source gives them in different places.

Columns and labels:
[1] = biological target: human orexin-1 receptor (Homo sapiens (Human), UniProt O43613); experiment: In vitro assay: intracellular calcium measurements (FLIPR), antagonistic activity; format: cell-based; conditions: CHO cells, 3 nM orexin-A, marked values are geometric means of n = 2-6, read-out: IC50 OX1
Sequence of human orexin-1 receptor (O43613 whole entry): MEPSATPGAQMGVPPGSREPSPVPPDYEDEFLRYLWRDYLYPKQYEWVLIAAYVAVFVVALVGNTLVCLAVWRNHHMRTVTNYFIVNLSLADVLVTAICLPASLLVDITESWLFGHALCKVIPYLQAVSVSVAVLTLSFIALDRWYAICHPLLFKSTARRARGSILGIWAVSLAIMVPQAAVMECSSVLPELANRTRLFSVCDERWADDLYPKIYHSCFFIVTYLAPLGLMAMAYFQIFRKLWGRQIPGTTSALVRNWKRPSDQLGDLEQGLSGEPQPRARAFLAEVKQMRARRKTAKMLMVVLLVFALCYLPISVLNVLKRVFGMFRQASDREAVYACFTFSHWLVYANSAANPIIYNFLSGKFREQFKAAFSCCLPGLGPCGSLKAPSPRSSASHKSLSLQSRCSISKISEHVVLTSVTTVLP

[2] = biological target: human orexin-2 receptor (Homo sapiens (Human), UniProt O43614); experiment: as above; format: cell-based; conditions: CHO cells, 3 nM orexin-A, marked values are geometric means of n = 2-6, read-out: IC50 OX2
Sequence of human orexin-2 receptor (O43614 whole entry): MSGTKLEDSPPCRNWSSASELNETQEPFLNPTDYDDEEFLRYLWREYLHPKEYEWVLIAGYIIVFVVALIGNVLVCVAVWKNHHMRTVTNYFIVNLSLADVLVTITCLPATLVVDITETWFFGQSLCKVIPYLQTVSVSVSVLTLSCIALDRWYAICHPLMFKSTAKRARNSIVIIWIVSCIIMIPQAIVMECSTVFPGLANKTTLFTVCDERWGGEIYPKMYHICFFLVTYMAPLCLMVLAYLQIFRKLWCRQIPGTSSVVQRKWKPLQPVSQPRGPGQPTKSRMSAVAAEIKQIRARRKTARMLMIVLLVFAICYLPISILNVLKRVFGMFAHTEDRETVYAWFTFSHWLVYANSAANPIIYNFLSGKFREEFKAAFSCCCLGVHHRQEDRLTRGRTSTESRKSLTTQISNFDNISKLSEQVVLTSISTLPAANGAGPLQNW

[3] = compound incubation time of 10 min

Row | SMILES | IC50 ([1]; compound incubation 120 min) [nM] | IC50 ([2]; compound incubation 120 min) [nM] | IC50 [1, 3] [nM] | IC50 [2, 3] [nM]
1 | COc1cccc(OC)c1C1CCCC(=O)N1Cc1cc(Cl)cc(-c2ccccn2)c1 (centres unmarked) [Example 49, 1-(3-chloro-5-(pyridin-2-yl)benzyl)-6-(2,6-dimethoxyphenyl)piperidin-2-one] | 28 | 11 |  | 
2 | COc1ccc2c(C)noc2c1C1CCCC(=O)N1Cc1cccc(-c2ccccc2)c1 (centres unmarked) [Example 235, 1-([1,1′-biphenyl]-3-ylmethyl)-6-(6-methoxy-3-methylbenzo[d]isoxazol-7-yl)piperidin-2-one] | 288 | 194 |  | 
3 | O=C1CCCC(c2c(F)cccc2C(F)(F)F)N1Cc1ccc(OC(F)(F)F)cc1 (centres unmarked) [Example 227, 6-(2-fluoro-6-(trifluoromethyl)phenyl)-1-(4-(trifluoromethoxy)benzyl)piperidin-2-one] |  |  | 3500 | 5900
4 | COc1cccc(OC)c1C1CC(C)C(=O)N1Cc1cccc(-c2nccs2)c1 (centres unmarked) [Example 132, 5-(2,6-dimethoxyphenyl)-3-methyl-1-(3-(thiazol-2-yl)benzyl)pyrrolidin-2-one] | 4 | 44 |  | 
5 | COc1cccc(OC)c1C1CC(C)C(=O)N1Cc1ccc(OC(F)(F)C(F)F)cc1 (centres unmarked) [Example 399, 5-(2,6-dimethoxyphenyl)-3-methyl-1-(4-(1,1,2,2-tetrafluoroethoxy)benzyl)pyrrolidin-2-one] | 172 | 124 |  | 
6 | Cc1nc(-c2cccc(CN3C(=O)CCCC3c3cccc4c3OCCO4)c2)cs1 (centres unmarked) [Example 272, 6-(2,3-dihydrobenzo[b][1,4]dioxin-5-yl)-1-(3-(2-methylthiazol-4-yl)benzyl)piperidin-2-one] | 510 | 229 |  | 
7 | COc1cccc(OC)c1C1CCCC(=O)N1Cc1ccc(F)cc1 (centres unmarked) [Example 157, 6-(2,6-dimethoxyphenyl)-1-(4-fluorobenzyl)piperidin-2-one] |  |  | 1460 | 231
8 | COc1cccc(OC)c1C1CCCC(=O)N1Cc1cc(-c2ccccc2)ccn1 (centres unmarked) [Example 22, 6-(2,6-dimethoxyphenyl)-1-((4-phenylpyridin-2-yl)methyl)piperidin-2-one] | 166 | 131 |  | 
9 | COc1cccc(OC)c1C1CCCC(=O)N1Cc1cccc(-c2ccncc2)c1 (centres unmarked) [Example 9, 6-(2,6-dimethoxyphenyl)-1-(3-(pyridin-4-yl)benzyl)piperidin-2-one] | 29 | 64 |  | 
10 | COc1cccc(OC)c1C1CC(C)C(=O)N1Cc1cccc(OC(F)(F)C(F)F)c1 (centres unmarked) [Example 424, 5-(2,6-dimethoxyphenyl)-3-methyl-1-(3-(1,1,2,2-tetrafluoroethoxy)benzyl)pyrrolidin-2-one] | 27 | 13 |  | 
11 | CC1CC(c2ccccc2-c2ccccc2)N(Cc2cccc(-c3ccccc3)c2)C1=O (centres unmarked) [Example 289, 5-([1,1′-biphenyl]-2-yl)-1-([1,1′-biphenyl]-3-ylmethyl)-3-methylpyrrolidin-2-one] | 420 | 596 |  | 
12 | COc1cccc(OC)c1C1CCC(=O)N1Cc1ccc2oc3ccccc3c2c1 (centres unmarked) [Example 127, 1-(dibenzo[b,d]furan-2-ylmethyl)-5-(2,6-dimethoxyphenyl)pyrrolidin-2-one] | 14 | 20 |  | 
13 | COc1cccc(OC)c1C1CCCC(=O)N1Cc1ccc2ccccc2c1 (centres unmarked) [Example 238, 6-(2,6-dimethoxyphenyl)-1-(naphthalen-2-ylmethyl)piperidin-2-one] |  |  | 77 | 47
14 | COc1cccc(OC)c1C1CC(C)C(=O)N1Cc1cc2cc(F)ccc2n1C (centres unmarked) [Example 390, 5-(2,6-dimethoxyphenyl)-1-((5-fluoro-1-methyl-1H-indol-2-yl)methyl)-3-methylpyrrolidin-2-one] | 80 | 142 |  | 
15 | COc1cccc(OC)c1C1CCCC(=O)N1Cc1ccc(OCC2CC2)cc1 (centres unmarked) [Example 208, 1-(4-(cyclopropylmethoxy)benzyl)-6-(2,6-dimethoxyphenyl)piperidin-2-one] |  |  | 1110 | 39
16 | O=C1CCCCC(c2ccccc2-c2cscn2)N1Cc1cccc(-c2nccs2)c1 (centres unmarked) [Example 452, 1-(3-(thiazol-2-yl)benzyl)-7-(2-(thiazol-4-yl)phenyl)azepan-2-one] | 105 | 15 |  | 
17 | COc1cccc(OC)c1[C@@H]1C[C@H](Cl)C(=O)N1Cc1ccc2oc3ccccc3c2c1 (racemic) [Example 369, rac-(3S*,5S*)-3-chloro-1-(dibenzo[b,d]furan-2-ylmethyl)-5-(2,6-dimethoxyphenyl)pyrrolidin-2-one] | 2 | 5 |  | 
18 | COc1cncc(OC)c1C1CCCC(=O)N1Cc1cccc(-n2cccn2)n1 (centres unmarked) [Example 66, 1-((6-(1H-pyrazol-1-yl)pyridin-2-yl)methyl)-6-(3,5-dimethoxypyridin-4-yl)piperidin-2-one] | 3100 | 3700 |  | 
19 | COc1cccc(OC)c1C1CC(F)(F)C(=O)N1Cc1cccc(-c2ccccc2)c1 (centres unmarked) [Example 336, 1-([1,1′-biphenyl]-3-ylmethyl)-5-(2,6-dimethoxyphenyl)-3,3-difluoropyrrolidin-2-one] | 16 | 81 |  | 
20 | COc1cccc(OC)c1C1CCC(=O)N1Cc1ccc2ccccc2c1 (centres unmarked) [Example 111, 5-(2,6-dimethoxyphenyl)-1-(naphthalen-2-ylmethyl)pyrrolidin-2-one] |  |  | 168 | 113
21 | COc1ccnc(OC)c1C1CCCC(=O)N1Cc1cccc(-c2ccccn2)c1 (centres unmarked) [Example 55, 6-(2,4-dimethoxypyridin-3-yl)-1-(3-(pyridin-2-yl)benzyl)piperidin-2-one] | 96 | 95 |  | 
22 | COc1cccc(OC)c1C1CCCCC(=O)N1Cc1ccccc1-c1ccccc1 (centres unmarked) [Example 78, 1-([1,1′-biphenyl]-2-ylmethyl)-7-(2,6-dimethoxyphenyl)azepan-2-one] | 323 | 806 |  | 
23 | O=C1CCC(c2ccccc2-c2ccccc2)N1Cc1cccc(-c2ccccc2)c1 (centres unmarked) [Example 285, 5-([1,1′-biphenyl]-2-yl)-1-([1,1′-biphenyl]-3-ylmethyl)pyrrolidin-2-one] | 243 | 533 |  | 
24 | COc1cccc(F)c1C1CC(F)(F)C(=O)N1Cc1ccc2oc3ccccc3c2c1 (centres unmarked) [Example 410, 1-(dibenzo[b,d]furan-2-ylmethyl)-3,3-difluoro-5-(2-fluoro-6-methoxyphenyl)pyrrolidin-2-one] | 143 | 12 |  | 
25 | COc1cccc(C)c1[C@@H]1C[C@H](Cl)C(=O)N1Cc1ccc(OC(F)(F)F)cc1 (racemic) [Example 326, rac-(3S*,5S*)-3-chloro-5-(2-methoxy-6-methylphenyl)-1-(4-(trifluoromethoxy)benzyl)pyrrolidin-2-one] | 1520 | 126 |  | 
26 | COCCOc1cccc(OC)c1C1CCCC(=O)N1Cc1ccc(OC(F)(F)F)cc1 (centres unmarked) [Example 211, 6-(2-methoxy-6-(2-methoxyethoxy)phenyl)-1-(4-(trifluoromethoxy)benzyl)piperidin-2-one] |  |  | 2780 | 664
27 | O=C1CCCC(c2c(Cl)cccc2Cl)N1Cc1ccc(OC(F)(F)F)cc1 (centres unmarked) [Example 228, 6-(2,6-dichlorophenyl)-1-(4-(trifluoromethoxy)benzyl)piperidin-2-one] |  |  | 2970 | 456
28 | COc1cccc(F)c1C1CC(C)C(=O)N1Cc1ccnc(-c2ncc(C)s2)c1 (centres unmarked) [Example 360, 5-(2-fluoro-6-methoxyphenyl)-3-methyl-1-((2-(5-methylthiazol-2-yl)pyridin-4-yl)methyl)pyrrolidin-2-one] | 352 | 12 |  | 
